Results as given in PubChem BioAssay (NCI).
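1) Cells in 96-well plates. 2) Compound, 48 h, 5 concentrations. 3) Linear interpolation between surrounding doses. 4) Unreached endpoint = highest concentration. TGI denotes the concentration required for complete inhibition of growth.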

Assays:
Test in all cases: DTP human tumour cell line panel, 48 h
HOP-62 NSCLC = tested on: HOP-62 NSCLC
M14 melanoma = tested on: M14 melanoma
K-562 leukemia = tested on: K-562 leukemia
HCT-116 colon = tested on: HCT-116 colon
786-0 renal = tested on: 786-0 renal
ACHN renal = tested on: ACHN renal
KM12 colon = tested on: KM12 colon
HOP-92 NSCLC = tested on: HOP-92 NSCLC
SF-268 CNS = tested on: SF-268 CNS
UACC-62 melanoma = tested on: UACC-62 melanoma
SNB-19 CNS = tested on: SNB-19 CNS
HT29 colon = tested on: HT29 colon
COLO 205 colon = tested on: COLO 205 colon
UO-31 renal = tested on: UO-31 renal
RPMI-8226 leukemia = tested on: RPMI-8226 leukemia
OVCAR-4 ovarian = tested on: OVCAR-4 ovarian
OVCAR-5 ovarian = tested on: OVCAR-5 ovarian
UACC-257 melanoma = tested on: UACC-257 melanoma
NCI-H23 lung = tested on: NCI-H23 lung
BT-549 breast = tested on: BT-549 breast
NCI-H460 lung = tested on: NCI-H460 lung
OVCAR-8 ovarian = tested on: OVCAR-8 ovarian
HL-60(TB) leukemia = tested on: HL-60(TB) leukemia
SK-MEL-28 melanoma = tested on: SK-MEL-28 melanoma
RXF 393 renal = tested on: RXF 393 renal
OVCAR-3 ovarian = tested on: OVCAR-3 ovarian
EKVX NSCLC = tested on: EKVX NSCLC
A549 NSCLC = tested on: A549 NSCLC
MOLT-4 leukemia = tested on: MOLT-4 leukemia
CAKI-1 renal = tested on: CAKI-1 renal
SR leukemia = tested on: SR leukemia
MDA-MB-231 breast = tested on: MDA-MB-231 breast
HS 578T breast = tested on: HS 578T breast
IGROV1 ovarian = tested on: IGROV1 ovarian
T-47D breast = tested on: T-47D breast
NCI-H226 lung = tested on: NCI-H226 lung
U251 CNS = tested on: U251 CNS
MCF7 breast = tested on: MCF7 breast
SF-295 CNS = tested on: SF-295 CNS
SK-OV-3 ovarian = tested on: SK-OV-3 ovarian
SN12C renal = tested on: SN12C renal
NCI-H522 lung = tested on: NCI-H522 lung
DU-145 prostate = tested on: DU-145 prostate
SNB-75 CNS = tested on: SNB-75 CNS
LOX IMVI melanoma = tested on: LOX IMVI melanoma
PC-3 prostate = tested on: PC-3 prostate
SK-MEL-5 melanoma = tested on: SK-MEL-5 melanoma
NCI/ADR-RES ovarian = tested on: NCI/ADR-RES ovarian
A498 renal = tested on: A498 renal
SW-620 colon = tested on: SW-620 colon
TK-10 renal = tested on: TK-10 renal
MDA-MB-435 = tested on: MDA-MB-435
HCC-2998 colon = tested on: HCC-2998 colon
MDA-N = tested on: MDA-N
SK-MEL-2 melanoma = tested on: SK-MEL-2 melanoma
CCRF-CEM leukemia = tested on: CCRF-CEM leukemia
HCT-15 colon = tested on: HCT-15 colon
SF-539 CNS = tested on: SF-539 CNS
MALME-3M melanoma = tested on: MALME-3M melanoma

Measured: TGI

CCN(CC)CCN1C=CC(C)C(C(=O)O)C1C(N)=O (configuration not stated)
> 100 µM: HOP-62 NSCLC | M14 melanoma | K-562 leukemia | HCT-116 colon | 786-0 renal | ACHN renal | KM12 colon | HOP-92 NSCLC | SF-268 CNS | UACC-62 melanoma | SNB-19 CNS | HT29 colon | COLO 205 colon | UO-31 renal | RPMI-8226 leukemia | OVCAR-4 ovarian | OVCAR-5 ovarian | UACC-257 melanoma | NCI-H23 lung | BT-549 breast | NCI-H460 lung | OVCAR-8 ovarian | HL-60(TB) leukemia | SK-MEL-28 melanoma | RXF 393 renal | OVCAR-3 ovarian | EKVX NSCLC | A549 NSCLC | MOLT-4 leukemia | CAKI-1 renal | SR leukemia | MDA-MB-231 breast | HS 578T breast | IGROV1 ovarian | T-47D breast | NCI-H226 lung | U251 CNS | MCF7 breast | SF-295 CNS | SK-OV-3 ovarian | SN12C renal | NCI-H522 lung | DU-145 prostate | SNB-75 CNS | LOX IMVI melanoma | PC-3 prostate | SK-MEL-5 melanoma | NCI/ADR-RES ovarian | A498 renal | SW-620 colon | TK-10 renal | MDA-MB-435 | HCC-2998 colon | MDA-N | SK-MEL-2 melanoma | CCRF-CEM leukemia | HCT-15 colon

O=C1c2ccccc2CCC1C(O)(C(F)(F)F)C(F)(F)F (configuration not stated)
> 100 µM: M14 melanoma | SF-539 CNS | K-562 leukemia | HCT-116 colon | 786-0 renal | ACHN renal | KM12 colon | HOP-92 NSCLC | UACC-62 melanoma | SNB-19 CNS | HT29 colon | COLO 205 colon | UO-31 renal | RPMI-8226 leukemia | OVCAR-4 ovarian | OVCAR-5 ovarian | UACC-257 melanoma | NCI-H23 lung | BT-549 breast | NCI-H460 lung | OVCAR-8 ovarian | SK-MEL-28 melanoma | RXF 393 renal | OVCAR-3 ovarian | EKVX NSCLC | A549 NSCLC | MOLT-4 leukemia | CAKI-1 renal | SR leukemia | MDA-MB-231 breast | HS 578T breast | IGROV1 ovarian | T-47D breast | NCI-H226 lung | U251 CNS | MCF7 breast | SF-295 CNS | SK-OV-3 ovarian | NCI-H522 lung | DU-145 prostate | SNB-75 CNS | LOX IMVI melanoma | MALME-3M melanoma | PC-3 prostate | SK-MEL-5 melanoma | NCI/ADR-RES ovarian | A498 renal | SW-620 colon | TK-10 renal | MDA-MB-435 | HCC-2998 colon | MDA-N | SK-MEL-2 melanoma | CCRF-CEM leukemia | HCT-15 colon
